Where “and” joins values, the source holds several entries; their conditions need not be identical. Equal values may be shown once.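 Tested at 5 concentrations; 48 h exposure; 96-well plates; endpoints linearly interpolated, else capped at highest concentration. GI50 = concentration required for 50% inhibition of growth. TGI: total growth inhibition.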
How the values were obtained:
Assay in all cases: NCI tumour cell line growth inhibition, 48 h
[1] = system: NCI-H460 lung
[2] = system: PC-3 prostate
[3] = system: NCI-H522 lung
[4] = system: SNB-19 CNS
[5] = system: SK-OV-3 ovarian
[6] = system: NCI-H226 lung
[7] = system: TK-10 renal
[8] = system: HCC-2998 colon
[9] = system: LOX IMVI melanoma
[10] = system: HCT-15 colon
[11] = system: SNB-75 CNS
[12] = system: T-47D breast
[13] = system: SK-MEL-2 melanoma
[14] = system: MDA-N
[15] = system: RXF 393 renal
[16] = system: UACC-257 melanoma
[17] = system: UO-31 renal
[18] = system: UACC-62 melanoma
[19] = system: SK-MEL-5 melanoma
[20] = system: K-562 leukemia
[21] = system: MDA-MB-435
[22] = system: MOLT-4 leukemia
[23] = system: HOP-92 NSCLC
[24] = system: RPMI-8226 leukemia
[25] = system: CAKI-1 renal
[26] = system: HCT-116 colon
[27] = system: SK-MEL-28 melanoma
[28] = system: A549 NSCLC
[29] = system: HT29 colon
[30] = system: HOP-62 NSCLC
[31] = system: SR leukemia
[32] = system: M14 melanoma
[33] = system: OVCAR-3 ovarian
[34] = system: 786-0 renal
[35] = system: OVCAR-4 ovarian
[36] = system: MDA-MB-231 breast
[37] = system: SF-295 CNS
[38] = system: SW-620 colon
[39] = system: NCI/ADR-RES ovarian
[40] = system: SN12C renal
[41] = system: BT-549 breast
[42] = system: ACHN renal
[43] = system: A498 renal
[44] = system: KM12 colon
[45] = system: SF-539 CNS
[46] = system: EKVX NSCLC
[47] = system: IGROV1 ovarian
[48] = system: OVCAR-5 ovarian
[49] = system: OVCAR-8 ovarian
[50] = system: DU-145 prostate
[51] = system: MALME-3M melanoma
[52] = system: SF-268 CNS
[53] = system: NCI-H23 lung
[54] = system: COLO 205 colon
[55] = system: MCF7 breast
[56] = system: CCRF-CEM leukemia
[57] = system: U251 CNS
[58] = system: HS 578T breast
[59] = system: HL-60(TB) leukemia

`COc1cccc(C2SC(N)=Nc3c2c(C)nn3C(=O)c2ccccc2O)c1` (stereo not given) was tested, and the TGI [1] was over 10 µM, the TGI [2] was over 10 µM and the TGI [3] was over 10 µM. It also gave a TGI [4] of over 10 µM, a TGI [5] of over 10 µM and a TGI [6] of over 7.78 µM. It also gave a TGI [7] of over 10 µM, a TGI [8] of over 10 µM and a TGI [9] of over 10 µM. For the same compound, the TGI [10] was over 10 µM, the TGI [11] was over 10 µM and the TGI [12] was over 10 µM. For the same compound, the TGI [13] was over 10 µM, the TGI [14] was over 10 µM and the TGI [15] was over 10 µM. The TGI [16] was over 10 µM, the TGI [17] was over 10 µM and the TGI [18] was over 10 µM. It also gave a TGI [19] of over 10 µM, a TGI [20] of over 10 µM and a TGI [21] of over 10 µM. The TGI [22] was over 10 µM, the TGI [23] was over 10 µM and the TGI [24] was over 10 µM. It also gave a TGI [25] of over 10 µM, a TGI [26] of over 10 µM and a TGI [27] of over 10 µM. The TGI [28] was over 10 µM, the TGI [29] was over 10 µM and the TGI [30] was over 10 µM. For the same compound, the TGI [31] was over 7.36 µM, the TGI [32] was over 10 µM and the TGI [33] was over 7.61 µM. For the same compound, the TGI [34] was over 10 µM, the TGI [35] was over 8.45 µM and the TGI [36] was over 9.64 µM. The TGI [37] was over 10 µM, the TGI [38] was over 10 µM and the TGI [39] was over 10 µM. For the same compound, the TGI [40] was over 10 µM, the TGI [41] was over 10 µM and the TGI [42] was over 10 µM. For the same compound, the TGI [43] was over 10 µM, the TGI [44] was over 10 µM and the TGI [45] was over 2.64 µM. It also gave a TGI [46] of over 10 µM, a TGI [47] of over 10 µM and a TGI [48] of over 10 µM. The TGI [49] was over 10 µM, the TGI [50] was over 10 µM and the TGI [51] was over 10 µM. The TGI [52] was over 10 µM, the TGI [53] was over 10 µM and the TGI [54] was over 10 µM. It also gave a TGI [55] of over 10 µM, a TGI [56] of over 10 µM and a TGI [57] of over 10 µM.

For `CC1=C2C(=C[C@@](C)(CO)[C@@H]2O)C(=O)[C@](C)(O)C12CC2`, the TGI [1] was 0.00701 µM and 0.0108 µM, the TGI [2] was 0.0661 µM and 0.0121 µM and the TGI [58] was 0.0428 µM. For the same compound, the TGI [3] was 0.0108 µM, the TGI [4] was 0.0921 µM and the TGI [5] was 0.0302 µM and 0.0394 µM. The TGI [6] was 0.0507 µM and 0.0611 µM, the TGI [7] was 0.106 µM and the TGI [8] was 0.0302 µM and 0.018 µM. The TGI [9] was 0.0376 µM, the TGI [10] was 0.0344 µM and the TGI [11] was 0.0296 µM and 0.0123 µM. The TGI [12] was 0.0545 µM, the TGI [13] was 0.0297 µM and the TGI [14] was 0.0272 µM and 0.0105 µM. The TGI [15] was 0.018 µM, the TGI [16] was 0.0308 µM and 0.0229 µM and the TGI [17] was 0.0422 µM. The TGI [18] was 0.0265 µM, the TGI [19] was 0.0183 µM and the GI50 [20] was 0.0222 µM. For the same compound, the TGI [21] was 0.0312 µM, the GI50 [22] was 0.0107 µM and the TGI [23] was 0.061 µM. For the same compound, the GI50 [24] was 1.15 µM, the TGI [24] was 6.09 µM and 12.3 µM and the GI50 [25] was 0.178 µM. For the same compound, the TGI [26] was 0.104 µM and 0.135 µM, the TGI [27] was 0.0339 µM and 0.0146 µM and the TGI [28] was 0.0885 µM and 0.2 µM. The TGI [29] was 0.0286 µM, the TGI [30] was 0.0263 µM and 0.0432 µM and the TGI [32] was 0.0228 µM. The TGI [34] was 0.0143 µM and 0.0638 µM, the TGI [35] was 0.0267 µM and the GI50 [36] was 0.503 µM. For the same compound, the TGI [38] was 0.074 µM and 0.129 µM, the TGI [39] was 0.0243 µM and the TGI [40] was 0.112 µM and 0.119 µM. It also gave a TGI [41] of 0.0518 µM, a GI50 [42] of 0.0189 µM and a TGI [42] of 0.0878 µM. The TGI [59] was 0.0327 µM, the TGI [43] was 0.0288 µM and the TGI [44] was 0.105 µM and 0.568 µM. The TGI [45] was 0.0181 µM and 0.0175 µM, the TGI [46] was 0.0678 µM and 0.0153 µM and the TGI [47] was 0.0583 µM. For the same compound, the TGI [48] was 0.0664 µM and 0.0689 µM, the TGI [49] was 0.0311 µM and the TGI [50] was 0.0597 µM. For the same compound, the TGI [51] was 0.0243 µM, the TGI [52] was 0.0192 µM and 0.106 µM and the GI50 [53] was 0.3 µM. The TGI [54] was 0.0218 µM, the TGI [55] was 0.0687 µM and the GI50 [56] was 0.342 µM. The TGI [57] was 0.0243 µM and 0.0794 µM.

`C[C@]12CC[C@H](O)CC1=CC[C@@H]1[C@@H]2CC[C@]2(C)C(=N/N)/C(=N\O)C[C@@H]12` showed a TGI [2] of over 100 µM, a TGI [3] of over 100 µM and a TGI [4] of over 100 µM. The TGI [5] was over 100 µM, the TGI [6] was over 100 µM and the TGI [7] was over 100 µM. For the same compound, the TGI [9] was over 100 µM, the TGI [10] was over 100 µM and the TGI [11] was 30.5 µM. It also gave a TGI [12] of over 100 µM, a TGI [13] of over 100 µM and a TGI [14] of 48.2 µM. The TGI [15] was over 100 µM, the TGI [16] was over 100 µM and the TGI [17] was over 100 µM. The TGI [18] was over 100 µM, the TGI [19] was over 100 µM and the TGI [20] was over 100 µM. For the same compound, the TGI [21] was 5 µM, the TGI [22] was over 100 µM and the TGI [23] was 11.8 µM. The TGI [24] was over 100 µM, the TGI [25] was over 100 µM and the TGI [26] was over 100 µM. The TGI [28] was over 100 µM, the TGI [29] was over 100 µM and the TGI [30] was over 100 µM. It also gave a TGI [31] of over 100 µM, a TGI [32] of over 100 µM and a TGI [33] of over 100 µM. For the same compound, the TGI [34] was over 100 µM, the TGI [35] was over 100 µM and the TGI [36] was over 100 µM. It also gave a TGI [37] of over 100 µM, a TGI [38] of over 100 µM and a TGI [39] of over 100 µM. It also gave a TGI [40] of over 100 µM, a TGI [41] of over 100 µM and a TGI [42] of over 100 µM. For the same compound, the TGI [59] was 67.7 µM, the TGI [43] was 30.8 µM and the TGI [44] was over 100 µM. For the same compound, the TGI [45] was over 100 µM, the TGI [46] was over 100 µM and the TGI [47] was 75.7 µM. The TGI [48] was over 100 µM, the TGI [49] was over 100 µM and the TGI [50] was over 100 µM. It also gave a TGI [51] of over 100 µM, a TGI [52] of over 100 µM and a TGI [53] of over 100 µM. The TGI [54] was over 100 µM, the TGI [55] was over 100 µM and the TGI [56] was over 100 µM. The TGI [57] was 43.4 µM.
